In brackets after ≈: the same amount, converted by molar mass.
Experiments:
Assay in all cases: in vitro antibacterial activity, MIC by dilution test in microtiter
[1] = tested on: Enterococcus faecalis ATCC 7,080; type: cell-based; settings: strain L 149; Mueller-Hinton broth, inoculum about 5×10^5 cfu/ml, 0.01% bovine serum albumin, 37° C., 18-24 hours
Experimental: (§1) The in vitro antibacterial activity of the compounds is determined by means of standard […] tests in microtiter. Iso-Sensitest broth (Oxoid) is used for all bacteria except streptococci (Todd-Wewitt broth, Difco) and enterococci (Mueller-Hinton, Difco). Broth cultures are diluted so that the final inoculum is about 5×10^5 cfu/ml (colony forming units per ml). All broth microdilution MICs are performed in the presence of 0.01% bovine serum albumin (Pentax fraction V, Sigma).

S. aureus Smith = type: cell-based; settings: strain L 819; Iso-Sensitest broth, inoculum about 5×10^5 cfu/ml, 0.01% bovine serum albumin, 37° C., 18-24 hours
Experimental: as §1

S. aureus clin. isol. = type: cell-based; settings: strain L 561; Iso-Sensitest broth, inoculum about 5×10^5 cfu/ml, 0.01% bovine serum albumin, 37° C., 18-24 hours
Experimental: as §1

[2] = tested on: S. epidermidis ATCC 12,228; type: cell-based; settings: strain L 147; Iso-Sensitest broth, inoculum about 5×10^5 cfu/ml, 0.01% bovine serum albumin, 37° C., 18-24 hours
Experimental: as §1

[3] = tested on: S. epidermidis clin. isol.; type: cell-based; settings: strain L 533; Iso-Sensitest broth, inoculum about 5×10^5 cfu/ml, 0.01% bovine serum albumin, 37° C., 18-24 hours
Experimental: as §1

[4] = tested on: S. haemolyticus clin, isol.; type: cell-based; settings: strain L 602; Iso-Sensitest broth, inoculum about 5×10^5 cfu/ml, 0.01% bovine serum albumin, 37° C., 18-24 hours
Experimental: as §1

Staph. aureus Tour = type: cell-based; settings: strain L 165; Iso-Sensitest broth, inoculum about 5×10^5 cfu/ml, 0.01% bovine serum albumin, 37° C., 18-24 hours
Experimental: as §1

Strep. pneumoniae UC41 = type: cell-based; settings: strain L 44; Todd-Wewitt broth, inoculum about 5×10^5 cfu/ml, 0.01% bovine serum albumin, 37° C., 18-24 hours
Experimental: as §1

Strep. pyogenes C203 = type: cell-based; settings: strain L 49; Todd-Wewitt broth, inoculum about 5×10^5 cfu/ml, 0.01% bovine serum albumin, 37° C., 18-24 hours
Experimental: as §1

E. faecalis clin. isol. = type: cell-based, Enterococcus faecalis; settings: for MIC: strain L 502, Mueller-Hinton broth, inoculum about 5×10^5 cfu/ml, 0.01% bovine serum albumin, 37° C., 18-24 hours
Experimental: as §1

| Molecule | MIC [1] [µg/mL] | MIC (S. aureus Smith) [µg/mL] | MIC (S. aureus clin. isol.) [µg/mL] | MIC [2] [µg/mL] | MIC [3] [µg/mL] | MIC [4] [µg/mL] | MIC (Staph. aureus Tour) [µg/mL] | MIC (Strep. pneumoniae UC41) [µg/mL] | MIC (Strep. pyogenes C203) [µg/mL] | activity against a clinical isolate of Enterococcus faecalis (in words) (E. faecalis clin. isol.) | MIC (E. faecalis clin. isol.) [µg/mL] |
| --- | --- | --- | --- | --- | --- | --- | --- | --- | --- | --- | --- |
| N[C@H]1C(=O)N[C@@H]2Cc3ccc(c(Cl)c3)Oc3cc4cc(c3O)Oc3ccc(cc3Cl)[C@@H](O)[C@@H]3NC(=O)[C@H](NC(=O)[C@@H]4NC(=O)[C@@H](NC2=O)c2cc(O)cc(c2)Oc2cc1ccc2O)c1ccc(O)c(c1)-c1c(O)cc(O)cc1[C@@H](C(=O)O)NC3=O [teicoplanin aglycon] | 0.13 (≈ 0.108 µM) | 0.06 (≈ 0.05 µM) | 0.13 (≈ 0.108 µM) | 0.06 (≈ 0.05 µM) | 0.016 (≈ 0.0133 µM) | 0.25 (≈ 0.209 µM) | 0.13 (≈ 0.108 µM) | 0.13 (≈ 0.108 µM) | 0.13 (≈ 0.108 µM) | resistant | > 128 |
| (L-phenylalanyl)^3 -(D-lysyl)^15 -aglucoteicoplanin dalbaheptide methyl ester | 0.5 | 0.13 | 0.06 | 0.13 | 0.13 | 0.5 | 0.13 | 0.13 | 0.25 | surprisingly active | 16 |
| teicoplanin | 0.13 | 0.25 | 8 | 8 | 8 | 32 | 0.13 | 0.13 | 0.13 | resistant | > 128 |

Reference: patent US5644025A, “Tetrapeptides deriving from dalbaheptide antibiotics” (Gruppo Lepetit SPA, priority 1990, dated 1997)
